For one data set, the system named is Mtb H37Rv. Particulars: cited from earlier work; for MIC90 / MIC (H37Rv): previously reported.
Another data set concerns Mycobacterium smegmatis. Also on record: method as in earlier work. Particulars: ref 33 (Van Puyvelde et al.); cited from earlier work.
Data set [1] deals with Mtb H37Ra strain (ATCC 25177). As to the kind of experiment: Broth microdilution growth inhibition assay against Mtb H37Ra. The class given is cell-based, Mycobacterium tuberculosis. Particulars: for antitubercular activity (in words): Mtb H37Ra; for MIC90: 90% inhibition of Mtb H37Ra growth.
Another data set is described as follows: in vitro. Particulars: human, CC50, BEAS-2B, 24 h exposure, resazurin; mean ± SD (n = 3). In general terms: The colour change of resazurin is a common sign of viable cells or microbes.
A short description of data set [2]: Resazurin reduction cytotoxicity assay, THP-1 macrophages. Particulars: human.
A short description of data set [3]: Resazurin reduction cytotoxicity assay, Raw264.7. The settings on record: mouse.
A short description of data set [4]: Resazurin reduction cytotoxicity assay, IMR90. Particulars: human, IMR-90 fetal lung fibroblasts.
Data set [5] can be described thus: Resazurin reduction cytotoxicity assay, HepG2. Particulars: human, HepG2 hepatocellular carcinoma cells.
In the next data set the test system is HepG2 cells. As to the kind of experiment: Resazurin reduction cytotoxicity assay, HepG2. The settings on record: HepG2, 24 h exposure, resazurin; mean ± SD (n = 3).
In a further data set the test system is Mtb H37Ra. Particulars: cited from earlier work.
Setting [6] is: Mycobacterium tuberculosis, pure commercial compounds, 50% inhibition of Mtb H37Ra growth, mean ± SD, read-out: MIC50.
Where [7] appears, read: Mycobacterium tuberculosis, pure commercial compounds, mean ± SD, read-out: MIC90.
Setting [8] is: pure commercial compounds, 50% inhibition of Mtb H37Ra growth, mean ± SD, read-out: MIC50.
The mark [9] stands for this setting: pure commercial compounds, 50% inhibition of Mtb H37Ra growth, mean ± SD.
Setting [10] is: pure commercial compounds, mean ± SD.

Structures are written as SMILES. In brackets after ≈: the same amount, converted by molar mass. Entries after “also recorded” stand apart in the source; their conditions may differ. Like-named read-outs stand apart in the source and are kept apart here.

On to `CC(C)C1=C(O)C(=O)C2=C(C=C[C@H]3C(C)(C)CCC[C@]23C)C1=O` [6,7-dehydroroyleanone], for which the MIC90 (as a rule, the lowest concentration that inhibits either 90% of growth or 90% of the strains tested, depending on the study) in the data set with Mtb H37Rv (Mtb H37Rv, ref 10 (Baldin et al.)) is 31.2 µg/mL (≈ 99.2 µM).
On to `C=C[C@]1(C)C=C2[C@H](O)C[C@@H]3C(C)(CCC[C@@]3(C)CO)[C@H]2CC1` (stereo partly drawn) [8(14),15-sandaracopimaradiene-7α,18diol], for which, in the data set on Mycobacterium smegmatis, the MIC90 was 12 µg/mL (≈ 39.4 µM).
On to `C=C1CC[C@H]2O[C@]2(C)CC[C@@H]2[C@@H]1CC2(C)C` [Caryophyllene oxide], for which, in data set [1], the “antitubercular activity (in words)” value was “very low to no activity; also recorded: inactive”. Also, the MIC50 in data set [1] (setting [6]) and in [1] (setting [8]) was greater than 200 µM in each case. Further, the MIC90 in [1] (setting [7]) is greater than 200 µM.
On to `COc1ccc(-c2oc3cc(OC)c(OC)c(O)c3c(=O)c2OC)cc1O` [Casticin], for which the MIC50 in [1] (setting [6]) and in data set [1] (setting [8]) was greater than 200 µM each time. Besides, the MIC90 in data set [1] (setting [7]) was greater than 200 µM.
Consider `COc1cc2oc(-c3ccc(O)c(O)c3)cc(=O)c2c(O)c1OC` [Cirsiliol], for which the MIC50 (commonly the lowest concentration that inhibits either 50% of growth or 50% of the strains tested, depending on the study) in [1] (setting [6]) was determined as 80.3 µM (≈ 26.5 µg/mL); in data set [1] (setting [9]), 80.3 ± 43 µM (≈ 26.5 µg/mL). Moreover, the MIC90 in data set [1] (setting [7]) was greater than 200 µM; in data set [1] (pure commercial compounds, mean ± SD, read-out: MIC90), greater than 200 µM. The CC50 in the data set “in vitro” was greater than 250 µM. Also, the CC50 at 24 h is 11.2 ± 2.7 µM in [2], 71.2 ± 44.1 µM in data set [3] (Raw264.7 macrophage cells), 108 ± 44.1 µM in data set [4] and greater than 250 µM in data set [5].
`CC[C@@H](CO)NCCN[C@@H](CC)CO` [Ethambutol, reference compound]: in data set [1] (setting [6]), the MIC50 stood at 10.3 ± 4 µM (≈ 2.1 µg/mL). Moreover, the MIC90 in data set [1] (setting [7]) came out at 17.3 ± 0.96 µM (≈ 3.53 µg/mL).
With `COc1c(O)cc2oc(-c3ccc(O)cc3)cc(=O)c2c1O` [Hispidulin], the MIC50 was 54.8 µM (≈ 16.5 µg/mL) in data set [1] (setting [6]) and 54.8 ± 25.6 µM (≈ 16.5 µg/mL) in [1] (setting [9]). The values for the MIC90 in [1] (setting [7]) and in data set [1] (setting [10]) were 162 µM (≈ 48.6 µg/mL) and 162 ± 75 µM (≈ 48.6 µg/mL), respectively. The compound further returned a CC50 in “in vitro” greater than 250 µM. Moreover, the results for the CC50 at 24 h in [2] and in data set [3] were 21.1 ± 14.5 µM and 227 ± 36.7 µM, respectively.
`NC[C@H]1O[C@H](O[C@H]2[C@H](O)[C@@H](O[C@H]3O[C@H](CO)[C@@H](O)[C@H](N)[C@H]3O)[C@H](N)C[C@@H]2N)[C@H](O)[C@@H](O)[C@@H]1O` [Kanamycin, reference compound] showed an MIC50 in data set [1] (setting [9]) of 3.3 ± 0.40 µM (≈ 1.6 µg/mL). The compound further yielded an MIC90 in [1] (setting [10]) of 7.5 ± 1.7 µM (≈ 3.63 µg/mL).
For `CC1(C)C[C@H](O)C[C@@]2(C)OC(=O)C=C12` [Loliolide], the “antitubercular activity (in words)” value in data set [1] is “inactive”. Further, the MIC50 in [1] (setting [6]) and in [1] (setting [8]) was greater than 200 µM each time. For the same compound, the MIC90 in data set [1] (setting [7]) is greater than 200 µM.
Take `O=c1cc(-c2ccc(O)c(O)c2)oc2cc(O)cc(O)c12` [Luteolin]: the “MIC90 / MIC (H37Rv)” value with Mtb H37Rv (Mtb H37Rv) was 78.12 µg/mL (≈ 273 µM).
Consider `COc1cc(C2c3c(cc(OC)c(O)c3OC)CC(CO)C2CO)cc(OC)c1O` (stereo not drawn) [Lyoniresinol], for which, in data set [1], the “antitubercular activity (in words)” value is “inactive”. The MIC50 in data set [1] (setting [6]) and in data set [1] (setting [8]) was greater than 200 µM in each case. For the same compound, the MIC90 in data set [1] (setting [7]) is greater than 200 µM.
`C=Cc1c(C)c2cc3nc(c4c5[nH]c(cc6nc(cc1[nH]2)C(C)=C6CC)c(C)c5C(=O)[C@@H]4C(=O)OC)[C@@H](CCC(=O)O)[C@@H]3C` [Pheophorbide A]: the MIC50 in data set [1] (setting [6]) stood at 10.5 ± 5 µM (≈ 6.22 µg/mL); in data set [1] (setting [8]), 10.5 µM (≈ 6.22 µg/mL). In data set [1] (setting [7]), the MIC90 is 17 ± 7.6 µM (≈ 10.1 µg/mL). Besides, the CC50 in “in vitro” was roughly 4.9 µM; in the data set on HepG2 cells it was “no cytotoxicity”. Further, the CC50 at 24 h was 1.4 ± 0.8 µM in data set [2], 20.9 ± 6.5 µM in data set [3] (Raw264.7 macrophage cells), roughly 11.5 µM in data set [4] and greater than 84.3 µM in data set [5].
On to `O=c1c(O)c(-c2ccc(O)c(O)c2)oc2cc(O)cc(O)c12` [Quercetin], for which the MIC90 with Mtb H37Rv (H37Rv) is on record as 6.25 µg/mL (≈ 20.7 µM).
For the compound `C/C1=C\CC(C)(C)/C=C/C(=O)/C(C)=C/CC1` [Zerumbone], the “antitubercular activity (in words)” value in [1] is “very low to no activity; also recorded: inactive”. Further, the MIC50 in [1] (Mycobacterium tuberculosis) and in data set [1] (setting [8]) was greater than 200 µM each time. Also, the MIC90 in [1] (setting [7]) was greater than 200 µM. The same compound came in with a CC50 in “in vitro” of 149 ± 43.2 µM. In addition, the CC50 at 24 h was 51.6 ± 31.6 µM in data set [2], 44.5 ± 3.5 µM in data set [3] (Raw264.7 macrophage cells), 79.8 ± 48.7 µM in data set [4] and greater than 250 µM in data set [5].
`COc1ccc(-c2coc3cc(O)c(OC)cc3c2=O)cc1` [afrormosin]: the MIC90 in the data set on Mtb H37Ra was 50 µg/mL (≈ 168 µM).
Regarding `O=c1cc(-c2ccc(O)cc2)oc2cc(O)cc(O)c12` [apigenin], the “MIC90 / MIC (H37Rv)” value in the data set with Mtb H37Rv (Mtb H37Rv) was 70 µg/mL (≈ 259 µM).
`COc1ccc(-c2coc3cc(O)ccc3c2=O)cc1` [formononetin]: in the data set with Mtb H37Ra, the MIC90 was 25 µg/mL (≈ 93.2 µM).
Turning to `O=C1CC(c2ccc(O)cc2)Oc2cc(O)ccc21` (stereo not drawn) [liquitirigenin], the “MIC (H37Ra)” value in the data set with Mtb H37Ra (previously reported MIC90) is listed as 25 µg/mL (≈ 97.6 µM).
On to `CC(C)=CCC[C@](C)(O)[C@@H]1CC=C(C)CC1` [α-bisabolol], for which the MIC50 in data set [1] (Mycobacterium tuberculosis) and in [1] (setting [8]) was greater than 200 µM each time. Besides, the MIC90 in data set [1] (setting [7]) was greater than 200 µM. In “in vitro”, this compound came in with a CC50 greater than 250 µM. Besides, the CC50 at 24 h in [2] (THP-1-derived macrophages (PMA-differentiated)) was greater than 250 µM; in [3] (Raw264.7 macrophage cells) it was 174 ± 26.2 µM; in data set [4], greater than 250 µM; in [5], greater than 250 µM.

These data come from PMC12526154, “Bioactive Compounds Discovery from French Guiana Plant Extracts Through Antitubercular Screening and Molecular Networking” (Plants, 2025).
